Results published in patent publication US4857652A, “Chemiluminescent 1,2-dioxetane compounds” (priority 1988, dated 1989).
Like-named read-outs stand apart in the source and are kept apart here.

Tests used:
[1] = assay type: physicochemical; conditions: for Ea (activation energy for decomposition) / k at 25° C.: in xylene
Experimental: Rates of dioxetane decomposition were monitored by the decay of chemiluminescence of aerated solutions. A cylindrical Pyrex vial equipped with magnet stir bar was filled with 3-4 mL of the reaction solvent, sealed with a Teflon-lined screw cap and placed in the thermostatted sample block of the chemiluminescence-measuring apparatus (Black Box). Temperature control was provided by an external circulating water bath. Appropriate values for the instrument gain and optical slit size were selected. […]. The vial was sealed with a Teflon-lined screw cap to prevent evaporation when high temperatures were used. Measurement of the signal was begun by opening the shutter. The chemiluminescent decay was generally recorded for at least three half-lives. Calculation of the first-order rate constant, k, from the In(Intensity) vs. time data was performed by a computer program utilizing a standard least-squares treatment. The correlation coefficient, r, was typically at least 0.999 and varied less than 5% between replicate samples. The observed rate was not measurably concentration dependent.
Activation parameters for decomposition of the dioxetanes were calculated from plots of In k.vs. 1/T (Arrhenius eq.) or In k/t vs. 1/T (Eyring eq.) by a standard least-squares linear regression analysis.

[2] = assay type: physicochemical; conditions: for base-induced decomposition, chemiluminescence: room temperature
Experimental: (§1) A solution of the dioxetane in a suitable solvent (e.g. o-xylene) was placed in the reaction vial as described above. The vial was placed in the sample holder which was maintained at a temperature such that thermal decomposition of the dioxetane was negligible. Instrument parameters were selected as above and data collection started. A solution of the releasing agent (e.g. base or fluoride) preferably in the reaction solvent was injected by syringe into the rapidly stirred dioxetane solution. The volume of releasing agent added was generally less than 5% of the total volume so that temperature fluctuation of the sample during the time course of the decay was minimal. The pseudo-first order decay was monitored for at least three half-lives.
1. Triggering the Chemiluminescence of Hydroxy-Substituted Dioxetanes with Base: Potassium tert-butoxide induced decomposition of 2b. […].

[3] = assay type: physicochemical
Experimental: as §1
2. Triggering the Chemiluminescence of Silyloxy-Substituted Dioxetanes with Fluoride Ion: Fluoride ion induced decomposition of 2c. […]. […]. A spectrum of the chemiluminescence obtained from the fluoride triggering of 2c in 1:1 aqueous/2-methoxyethanol is shown in FIG. 1 with the solid line. The fluorescence of the cleavage product (methyl 6-hydroxy-2-naphthoate) from the dioxetane is also shown with the dashed line for comparison.

[4] = Triggering properties of further dioxetanes (general statement); assay type: physicochemical
Experimental: as §1

[5] = target: T1, Acetylcholinesterase from human erythrocytes (Homo sapiens, UniProt P22303); test: Enzymatic triggering of chemiluminescence with acetylcholinesterase; assay type: biochemical; conditions: 10 μL stock in 3 mL 0.05M phosphate buffer pH 8.0, 37.0° C.
T1 construct: purchased Sigma Chemical Co. C-3389; host or cells: human erythrocytes
T1 sequence (P22303 other isoform, or with tags, fused parts or gaps): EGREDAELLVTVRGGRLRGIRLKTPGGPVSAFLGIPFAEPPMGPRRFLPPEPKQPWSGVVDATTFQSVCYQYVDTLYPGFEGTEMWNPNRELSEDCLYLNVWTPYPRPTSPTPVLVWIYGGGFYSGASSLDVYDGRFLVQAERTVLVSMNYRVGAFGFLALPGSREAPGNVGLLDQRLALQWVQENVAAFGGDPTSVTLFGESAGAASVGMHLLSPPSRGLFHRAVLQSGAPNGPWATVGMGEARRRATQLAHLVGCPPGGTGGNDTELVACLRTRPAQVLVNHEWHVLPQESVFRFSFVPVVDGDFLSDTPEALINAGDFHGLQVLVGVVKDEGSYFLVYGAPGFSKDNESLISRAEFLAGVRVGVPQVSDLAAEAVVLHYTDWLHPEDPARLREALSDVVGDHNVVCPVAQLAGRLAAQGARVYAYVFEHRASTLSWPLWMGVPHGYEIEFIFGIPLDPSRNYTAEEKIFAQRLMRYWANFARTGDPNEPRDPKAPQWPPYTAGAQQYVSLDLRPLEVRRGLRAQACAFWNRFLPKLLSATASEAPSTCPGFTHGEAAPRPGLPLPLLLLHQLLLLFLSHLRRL
Excerpt: Acetylcholinesterase, an enzyme of considerable biological significance, hydrolyzes acetylcholine to choline and acetic acid under physiological conditions. It was of interest to determine whether this enzyme would also initiate the chemiluminescent decomposition of the acetyl-protected dioxetane 2e by removal of the acetyl group. Acetylcholinesterase (C-3389) from human erythrocytes was purchased from Sigma Chemical Co. as a lyophilized powder containing phosphate buffer salts. […]. Addition of more dioxetane during this period generated more light.

[6] = Stability of dioxetane in aqueous buffers (IMAX with delay before the enzyme was added); assay type: physicochemical
Experimental: Stability of Enzyme and Dioxetane to Reaction Conditions. Many dioxetanes are known to be destroyed via a non-luminescent pathway by acid catalyzed processes in aprotic solvents. Similarly, amines are also known to cause the catalytic destruction of dioxetanes via an electron-transfer process. The stability of the dioxetane to the aqueous buffers used in the enzyme reactions, especially Tris buffer, was a matter of concern. A series of experiments were performed to assess the stability of the dioxetane in these buffers over the expected time course of a typical run. A comparison was made between the maximum light intensity produced for a given buffer and temperature with delays of 0 and 30 minutes before the enzyme was added. If the dioxetane were decomposing in the buffer then IMAX of the run where the dioxetane was exposed to the buffer for 30 minutes would be lower provided the enzyme is not saturated. […] In 0.05M phosphate buffer, pH 7.6 at 25° C. and 37 ° C. the percent decrease in IMAX due to the 30 minute delay was, respectively, 0 and 7% while in 0.02M Tris buffer, pH 7.6 at 25° C. a 12% decrease was found and at 37° C. after a delay of one hour a 34% decrease occurred.

[7] = tested on: Aryl esterase (carboxylic ester hydrolase) from porcine liver; test: Enzymatic triggering of chemiluminescence with aryl esterase; assay type: biochemical; conditions: for effect of competing substrate on light intensity of 2e/esterase reaction: 10 μL of […] added at maximum emission, pH 7.6 phosphate buffer, 37° C.; for hydrolysis by the enzyme (UV spectroscopy): under the reaction conditions
Experimental: (§2) A secondary stock solution of the acetate-protected dioxetane 2e was made by evaporating an aliquot of the methylene chloride stock equivalent to 10 micromoles of dioxetane and dissolving in 5.0 mL of 2-methoxyethanol to give a final concentration of 0.002M. […] Buffer solutions prepared in distilled water were 0.05M phosphate pH 7.6 and 8.0, 0.02M Tris (tris-hydroxymethylaninomethane maleate) pH 7.6, and pH 9.0 phosphate/borate buffer. Aryl esterase (also called carboxylic ester hydrolase (P-5221)) from porcine liver was purchased from Sigma Chemical Co. as a suspension of 11 mg of protein per mL in 3.2M (NH4)2 SO4 solution pH 8.0. Each mg of protein is equivalent to 260 Units, where 1 Unit is defined as the amount which will hydrolyze 1 micromole of ethyl butyrate in 1 minute at pH 8.0, 25° C. […] Injection of 1 μL of […] of aryl esterase to the stirred solution caused a chemiluminescent signal to appear. The intensity reached a maximum at about 3 minutes and decayed over a 30 minute period.
(3.) When distilled water was substituted for the Tris buffer, no chemiluminescence signal was observed, but on adding Tris buffer to this solution light emission similar to that above was produced. […] Addition of untreated enzyme preparation to this solution again produced light. […] The emission could be totally extinguished by addition of sufficient SDS. The decrease in light emission is not due to photophysical quenching of the excited state since thermal decomposition in the same solvent system at elevated temperatures results in readily detectable chemiluminescence.
This type of behavior explains the effect of the addition of the known esterase substrates α-naphthyl acetate and β-naphthyl acetate. […] A solution of 25 μL of the dioxetane stock (0.002M) in 3 mL of pH 7.6 phosphate buffer maintained at 37° C. was treated with 5 μL of the enzyme to initiate the chemiluminescence. At the point of maximum emission 10 μL of 0.011M solution of either α- or β-naphthyl acetate were added.

[8] = assay type: physicochemical; conditions: 0.002M in 2-methoxyethanol, stored at 0° C.
Experimental: as §2

[9] = 0.3 μmol dioxetane, 0.26 units aryl esterase, pH 7.6 Tris buffer, 25° C.
[10] = compared with dioxetanes 2a-c and 2e
[11] = polar aprotic solvents such as acetonitrile

COC1(c2ccc3ccccc3c2)OOC12C1CC3CC(C1)CC2C3 (centres unmarked) [Dioxetane 2a, 4-Methoxy-4-(2-naphthyl)spiro[1,2-dioxetane-3,2'-adamantane]]
Ea (activation energy for decomposition) [1]: 29.7
k at 25° C. ([1]; 25° C.): 3.17e-09 s⁻¹

COC1(c2ccc3cc(O)ccc3c2)OOC12C1CC3CC(C1)CC2C3 (centres unmarked) [Dioxetane 2b, 4-(6-Hydroxy-2-naphthyl)-4-methoxyspiro[1,2-dioxetane-3,2'-adamantane]]
half-life of chemiluminescence decay, base triggered ([2]; 10^-4 M in o-xylene, potassium t-butoxide 0.005M, 25° C., 100 µM): approximately 20 seconds
base triggered chemiluminescence ([2]; in methanol with KOH or in o-xylene with n-BuLi): bright blue chemiluminescence with similar decay rates
Ea (activation energy for decomposition) [1]: 29.7
k at 25° C. ([1]; 25° C.): 3.83e-09 s⁻¹

COC1(c2ccc3cc(O[Si](C)(C)C(C)(C)C)ccc3c2)OOC12C1CC3CC(C1)CC2C3 (centres unmarked) [Dioxetane 2c]
half-life of chemiluminescence decay, fluoride triggered ([3]; 10^-4 M in 0.01M tetrabutylammonium fluoride in 2-methoxyethanol, room temperature, 100 µM): about 20 minutes
half-life of decomposition in the absence of fluoride ion ([1]; 25° C., no fluoride): 2.5 years
Ea (activation energy for decomposition) [1]: 27.0
k at 25° C. ([1]; 25° C.): 8.72e-09 s⁻¹

COC1(c2ccc3cc(O[Si](c4ccccc4)(c4ccccc4)C(C)(C)C)ccc3c2)OOC12C1CC3CC(C1)CC2C3 (centres unmarked) [Dioxetane 2d]
chemiluminescence in polar aprotic solvents [3]: bright chemiluminescence
triggering properties [4]: triggering properties similar to dioxetanes 2a-c and 2e

COC1(c2ccc3cc(OC(C)=O)ccc3c2)OOC12C1CC3CC(C1)CC2C3 (centres unmarked) [Dioxetane 2e, 4-(6-Acetoxy-2-naphthyl)-4-methoxyspiro[1,2-dioxetane-3,2'-adamantane]]
duration of light emission [5]: 20 s
percent decrease in IMAX due to delay ([6]; 0.02M Tris buffer pH 7.6, 25° C., 30 minute delay): 12%
percent decrease in IMAX due to delay ([6]; 0.02M Tris buffer pH 7.6, 37° C., delay of one hour): 34%
percent decrease in IMAX due to delay ([6]; 0.05M phosphate buffer pH 7.6, 25° C., 30 minute delay): 0%
percent decrease in IMAX due to delay ([6]; 0.05M phosphate buffer pH 7.6, 37° C., 30 minute delay): 7%
period of decay of chemiluminescence [7, 9]: 30 min
time at which intensity reached a maximum [7, 9]: about 3 minutes
maximum light intensity, IMAX, versus temperature ([7]; 1 μL enzyme, Tris buffer, 25°, 37° and 50° C.): increased with increasing temperature
chemiluminescence signal without enzyme ([7]; 150 μL stock in 3.0 mL pH 7.6 Tris buffer, 25° C., before enzyme): no chemiluminescence signal was detected
stability of stock solution [8]: stable indefinitely
persistence of thermal chemiluminescence ([1]; aliquot in 3 mL o-xylene at 95° C.): persisted for several hours

Oc1ccc2c(c1)C1(OOC13C1CC4CC(C1)CC3C4)c1ccccc1-2 (centres unmarked) [Dioxetane 4a]
base-induced decomposition, chemiluminescence [2]: produced chemiluminescence at room temperature
triggering properties [4, 10]: triggering properties similar to dioxetanes 2a-c and 2e

CC(C)(C)[Si](C)(C)Oc1ccc2c(c1)C1(OOC13C1CC4CC(C1)CC3C4)c1ccccc1-2 (centres unmarked) [Dioxetane 4b, Dispiro[adamantane-2,3'-[1,2]dioxetane-4',9"-(2-tert-butyldimethylsilyloxy-9-fluorene)]]
chemiluminescence in polar aprotic solvents [3, 11]: bright chemiluminescence

Oc1ccc2c(c1)Oc1ccccc1C21OOC12C1CC3CC(C1)CC2C3 (centres unmarked) [Dioxetane 6a]
base-induced decomposition, chemiluminescence [2]: produced chemiluminescence at room temperature
triggering properties [4, 10]: triggering properties similar to dioxetanes 2a-c and 2e

CC(C)(C)[Si](C)(C)Oc1ccc2c(c1)Oc1ccccc1C21OOC12C1CC3CC(C1)CC2C3 (centres unmarked) [Dioxetane 6b]
chemiluminescence in polar aprotic solvents [3]: bright chemiluminescence
triggering properties [4]: triggering properties similar to dioxetanes 2a-c and 2e

CC(=O)Oc1ccc2c(c1)Oc1ccccc1C21OOC12C1CC3CC(C1)CC2C3 (centres unmarked) [Dioxetane 6c]
triggering properties [4, 10]: triggering properties similar to dioxetanes 2a-c and 2e

COC1(c2cccc(O)c2)OOC12C1CC3CC(C1)CC2C3 (centres unmarked) [Dioxetane 8a]
base-induced decomposition, chemiluminescence [2]: produced chemiluminescence at room temperature

COC1(c2cccc(O[Si](C)(C)C(C)(C)C)c2)OOC12C1CC3CC(C1)CC2C3 (centres unmarked) [Dioxetane 8b, 4-(3-tert-Butyldimethylsilyloxyphenyl)-4-methoxyspiro[1,2-dioxetane-3,2'-adamantane]]
chemiluminescence in polar aprotic solvents [3, 11]: bright chemiluminescence

CCCCCCCCCCCCOS(=O)(=O)[O-].[Na+] [sodium lauryl sulfate (SDS), sodium lauryl sulfate]
effect of enzyme inhibitor on light emission of 2e/esterase reaction ([7]; added at maximum emission, Tris buffer, 1.5 μL enzyme): irreversible decrease in the intensity

CC(=O)Oc1cccc2ccccc12 [α-naphthyl acetate]
effect of competing substrate on light intensity of 2e/esterase reaction [7]: rapid decrease in light intensity was noted followed by restoration of the original intensity within less than one minute
hydrolysis by the enzyme (UV spectroscopy) [7]: hydrolyzed by the enzyme in seconds

CC(=O)Oc1ccc2ccccc2c1 [β-naphthyl acetate]
effect of competing substrate on light intensity of 2e/esterase reaction [7]: rapid decrease in light intensity was noted followed by restoration of the original intensity within less than one minute
hydrolysis by the enzyme (UV spectroscopy) [7]: hydrolyzed by the enzyme in seconds
